Test results from US20100204116A1, “USE OF CALCITONIN AS ANTI-ANGIOGENIC AGENT” (priority 2007, published 2010).

Key:
CEM-SS cells = test: Cytotoxicity (MTS cell viability) in the HIV-1 assay; conditions: CEM-SS cells plus peptide only, 10 micrograms per ml
HIV-1IIIB = test: HIV-1 antiviral assay (CPE reduction, MTS) in CEM-SS cells; conditions: peptide 10 micrograms per ml, 6 days post-infection
spleen cells = test: Th1/Th2 cytokine profiling assay (Ovalbumin-restimulated spleen cells, CBA kit); format: cell-based, Balb/c mice; conditions: peptide 10 micrograms per ml; Ovalbumin restimulation; 72 hours
[1] = Cytotoxicity (CellTiter 96 cell viability) in the HCMV assay; conditions: human, MRC-5 cells (human embryonal lung fibroblasts)
[2] = system: Human Peripheral Blood Mononuclear Cells (PBMC); test: B cell proliferation assay (SAC plus Interleukin-2, 3H-thymidine); format: cell-based; conditions: peptide 10 micrograms per ml
RAW 264.7 cells = test: Phagocytosis assay (Fluorescein-labeled Escherichia coli, flow cytometry); format: cell-based, mouse; conditions: peptide 10 micrograms per ml
Procedure: RAW 264.7 (Mouse leukaemic monocyte macrophage cell line) cells were obtained from ATCC and grown in RPMI 1640 medium containing 10% FBS. […] After the cells were incubated for additional 60 min at 37° C. and allowed to ingest the Fluorescein-labeled Escherichia coli bacteria, cells were fixed with 1% paraformaldehyde. The samples were then analyzed by flow cytometry to determine the amount of phagocytosis as a function of brightness (the greater the phagocytic activity, the more fluorescence in the macrophage population). Data are reported as % positive and the mean fluorescence intensity (MFI) of positively stained cells.

TNF alpha = TNF alpha production assay (LPS-stimulated macrophages, ELISA); format: cell-based, human; conditions: peptide 10 micrograms per ml, lipopolysaccharide 200 ng/ml, overnight
Description: Not stimulated macrophages served as negative background control.

HUVEC = test: Endothelial tube formation assay; format: cell-based, human; conditions: peptide 10 micrograms per ml, 20 hours
Description: Positive control was vehicle only.

Human A549 cells [3] = test: Apoptosis prevention assay (C2 ceramide, Annexin-5); format: cell-based; conditions: A549 cells pretreated 30 min with peptide 10 micrograms per ml, then C2 ceramide
[4] = system: hepatitis B virus (HBV) ayw strain; test: HBV experimental assay system (secreted HBV DNA, TaqMan PCR); conditions: peptide 10 micrograms per ml; six days; HBV DNA in supernatant
[5] = system: Human Peripheral Blood Mononuclear Cells (PBMC); test: T cell proliferation assay (PHA, 3H-thymidine); format: cell-based; conditions: peptide 10 micrograms per ml
Human A549 cells [6] = test: Propidium iodide cell cycle assay; format: cell-based; conditions: peptide 10 micrograms per ml, 24 hours
[7] = system: Primary Human endothelial cells (HUVEC); test: Endothelial cell migration assay; format: cell-based; conditions: peptide 10 micrograms per ml, 22 hours
Human A549 cells [8] = test: Apoptosis induction assay (Annexin-5); format: cell-based; conditions: peptide 10 micrograms per ml, 24 hours
HCMV strain AD169 = test: HCMV plaque reduction assay in MRC-5 cells; format: cell-based; conditions: peptide 10 micrograms per ml, 7-10 days
Description: Ganciclovir was used as positive control.

[9] = system: MRC-5 cells (human embryonal lung fibroblasts); test: Cytotoxicity (CellTiter 96 cell viability) in the HCMV assay; conditions: MRC-5 cells; 6 days incubation; CellTiter 96

## Cc1cn([C@H]2C[C@H](N=[N+]=[N-])[C@@H](CO)O2)c(=O)[nH]c1=O [AZT, reference compound]
CEM-SS cells
  % Cell viability: 97%
HIV-1IIIB
  % CPE reduction in HIV-1 infected CEM-SS cells: 99%

## CC[C@H](C)[C@H](NC(=O)[C@H](C)NC(=O)[C@@H](NC(=O)[C@H](CCC(N)=O)NC(=O)[C@@H]1CCCN1C(=O)[C@H](Cc1ccccc1)NC(=O)[C@@H](NC(=O)[C@H](Cc1c[nH]cn1)NC(=O)[C@H](Cc1ccccc1)NC(=O)[C@H](CCCCN)NC(=O)[C@H](CC(N)=O)NC(=O)[C@H](Cc1ccccc1)NC(=O)[C@H](CC(=O)O)NC(=O)[C@H](CCC(N)=O)NC(=O)[C@@H](NC(=O)[C@H](Cc1ccc(O)cc1)NC(=O)[C@@H](NC(=O)CNC(=O)[C@H](CC(C)C)NC(=O)[C@H](CCSC)NC(=O)[C@@H]1CSSC[C@H](N)C(=O)NCC(=O)N[C@@H](CC(N)=O)C(=O)N[C@@H](CC(C)C)C(=O)N[C@@H](CO)C(=O)N[C@@H]([C@@H](C)O)C(=O)N1)[C@@H](C)O)[C@@H](C)O)[C@@H](C)O)[C@@H](C)O)C(=O)NCC(=O)N[C@H](C(=O)NCC(=O)N[C@@H](C)C(=O)N1CCC[C@H]1C(N)=O)C(C)C [Calcitonin]
Spleen cells
  IFNγ spleen cells; TH1 response (% of control): 63.7 % of control
  IL-2 spleen cells (% of control): 110.1 % of control
  IL-4 spleen cells; TH2 response (% of control): 0.0 % of control
  IL-5 spleen cells; TH2 response (% of control): 60.2 % of control
  TNF-a spleen cells; TH1 response (% of control): 116.4 % of control
[1]
  viability at 144 h: 100%
[2]
  % of SAC/IL2 induced control: 92.6%
RAW 264.7 cells
  % of control phagocytosis: 102.9%
TNF alpha
  % of LPS induction: 93.4%
HUVEC
  % inhibition of tube formation: 18%
Human A549 cells [3]
  % prevention of ceramide induced apoptosis: 32.7%
[4]
  % inhibition of HBV replication in HEP G2 cells: 31.0%
[5]
  % of PHA induced Control: 87.4%
Human A549 cells [6]
  Cell cycle analysis G0/G1: 57.0
  Cell cycle analysis G2/M: 10.4
  Cell cycle analysis S: 32.6
[7]
  % inhibition of migration: 26%
Human A549 cells [8]
  % of induction: 2.9%
HCMV strain AD169
  % plaque reduction: 5.8%
HIV-1IIIB
  % CPE reduction in HIV-1 infected CEM-SS cells: 0.0%

## Nc1nc(O)c2ncn(COC(CO)CO)c2n1 [Ganciclovir, reference compound]
[9]
  % Cell viability: 100%
